# How the values were obtained:
# [1] = test system: low risk organ-confined prostate cancer; experiment: Vascular-targeted photodynamic therapy (VTP), early treatment effect on 1 week MRI (lack of gadolinium uptake); type: in vivo, human; conditions: 4 mg/kg intravenously, light 200 J/cm, men
# Procedure: (§1) Men with low risk organ-confined prostate cancer (Gleason 3+3 on minimum 10 core TRUS biopsy) were recruited into two consecutive studies: PCM201 (a dose escalation study) or PCM203 (a confirmatory study). The vascular-targeted photodynamic therapy (“VTP”) procedure, carried out under general anesthesia, involved administration of TOOKAD® Soluble intravenously at 4 mg/kg, which was then activated by low power laser light delivered locally to the prostate via a brachytherapy-style transperineal template with a light density of 200 J/cm. Planned treatment volume (“PTV”, in mls) was determined by the location of tumor on biopsy and by MRI, and varied in volume from less than one lobe, to the whole prostate.
# (§2) The Light Density Index (“LDI”) was calculated as LDI=Σ(n)L/PTV, where Σ(n)L is the total length of all illuminating fibers (in cm), and PTV is the planned treatment volume, in mls.
# (§3) This was also correlated with the result of 6 month transrectal ultrasound (TRUS)-guided biopsy (positive or negative for any cancer).
# (§4) The correlation between LDI and the volume of tissue necrosis at day 7 and with the rate of negative biopsies at Month 6 was assessed in search of a threshold.
# (§5) 90 men were treated with a TOOKAD® Soluble dose of 4 mg/kg and a light dose of 200 J/cm in the two studies. Of these 89 were analyzable for LDI.
# [2] = test system: low risk organ-confined prostate cancer; experiment: Vascular-targeted photodynamic therapy (VTP), 6 month TRUS-guided biopsy; type: in vivo, human; conditions: study PCM201, 4 mg/kg intravenously, light 200 J/cm, men
# Procedure: as §1, §2, §3, §4, §5
substance,measurement,setting,value
Palladium 3^1-oxo-15-methoxycarbonylmethyl-rhodobacteriochlorin 13^1-(2-sulfoethyl) amide dipotassium salt [TOOKAD® Soluble],Treatment effect on 1 week MRI as % of PTV,"[1]; study PCM201, LDI < 1",59 (17) % of PTV
same,Treatment effect on 1 week MRI as % of PTV,"[1]; study PCM201, LDI ≥ 1",95 (12) % of PTV
same,Treatment effect on 1 week MRI as % of PTV,"[1]; study PCM203, LDI < 1",60 (22) % of PTV
same,Treatment effect on 1 week MRI as % of PTV,"[1]; study PCM203, LDI ≥ 1",94 (28) % of PTV
same,% of negative biopsies (6 months),[2]; LDI < 1,31 (4/17) %
same,% of negative biopsies (6 months),[2]; LDI ≥ 1,83 (10/12) %

# From patent US20210001143A1, “FOCAL PHOTODYNAMIC THERAPY METHODS” (STEBA MAOR SA, priority 2011, published 2021)
